Where two headings read alike, the source gives them in different places. Ends that are not written are not given here. Peptide text beside a SMILES is read from it.
Key:
Type in all cases: cell-based
[1] = system: Pseudomonas aeruginosa (Pa) biofilm; assay: static abiotic solid surface (microtiter, crystal violet) / Bioflux biofilm inhibition screen
Method: FIG. 1. Identification of new anti-biofilm peptides active against P. aeruginosa using the microtiter plate screening method with crystal violet staining. […] As a control peptide 1037 was utilized [de la Fuente Nunez et al. 2011].
Methods of assessment of anti-biofilm activity—Biofilm formation was initially analyzed using a static abiotic solid surface assay as described elsewhere (de la Fuente-Nunez et al., 2012). Dilutions (1/100) of overnight cultures were incubated in BM2 biofilm-adjusted medium [62 mM potassium phosphate buffer (pH 7), 7 mM (NH4)2SO4, 2 mM MgSO4, 10 μM FeSO4, 0.4% (wt/vol) glucose, 0.5% (wt/vol) Casamino Acids], or a nutrient medium such as Luria Broth, in polypropylene microtiter plates (Falcon, United States) in the absence (control) or presence of peptide. Peptide was added at time zero (prior to adding the diluted, overnight cultures) in varying concentrations, and the decrease in biofilm formation was recorded at 22-46 h for most bacteria. Planktonic cells were removed, biofilm cells adhering to the side of the tubes were stained with crystal violet, and absorbance at 595 nm was measured using a microtiter plate reader (Bio-Tek Instruments Inc., United States). Some peptides were screened against two Gram negative organisms, P. aeruginosa and K. pneumoniae using a Bioflux apparatus (AutoMate Scientific, Berkeley, Calif.; http://www.autom8.com/bioflux_biofilm.html), which allows for the high-throughput, real-time analysis of biofilms.

[2] = system: human peripheral blood mononuclear cells (MCP-1); assay: MCP-1 chemokine production by ELISA
Method: FIG. 19. High production of anti-infective chemokine MCP-1 by human peripheral blood mononuclear cells treated with peptides, as determined by ELISA after 24 hours of stimulation.
Venous blood (20 ml) from healthy volunteers was collected in Vacutainer® collection tubes containing sodium heparin as an anticoagulant (Becton Dickinson, Mississauga, ON) in accordance with UBC ethical approval and guidelines. Blood was diluted 1:1 with complete RPMI 1640 medium and separated by centrifugation over a Ficoll-Paque® Plus (Amersham Biosciences, Piscataway, N.J., USA) density gradient. White blood cells were isolated from the buffy coat, washed twice in RPMI 1640 complete medium, and the number of peripheral blood mononuclear cells (PBMC) was determined by Trypan blue exclusion. PBMC (5×10^5) were seeded into 12-well tissue culture dishes (Falcon; Becton Dickinson) at 0.75 to 1×10^6 cells/ml at 37° C. in 5% CO2. The above conditions were chosen to mimic conditions for circulating blood monocytes entering tissues at the site of infection via extravasation.
Following incubation of the cells under various treatment regimens, the tissue culture supernatants were centrifuged at 1000×g for 5 min, then at 10,000×g for 2 min to obtain cell-free samples. Supernatants were aliquoted and then stored at −20° C. prior to assay for various chemokines by capture ELISA (eBioscience and BioSource International Inc., CA, USA respectively)

[3] = system: LPS-stimulated human peripheral blood mononuclear cells (IL1-β); details: Table 12A, cells stimulated with 10 ng/ml LPS; for Fold change in IL1β relative to no peptide LPS stimulated cells: 1002-2013 compared to LPS control of 889 pg/ml; for IL1β Production: LPS alone 984 pg/ml, starred values (1002-2013) determined separately, LPS alone 889 pg/ml
[4] = system: human peripheral blood mononuclear cells (MCP-1); assay: SPOT-synthesized derivative screen: production of chemokine MCP-1; details: Table 12A, No LPS; for MCP1: background subtracted (21.3 pg/ml)
How it was run: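 MCP-1 was quantified by capture ELISA in cleared culture supernatants of treated human peripheral blood mononuclear cells. Cells came from heparinized volunteer blood via Ficoll gradient and were seeded at 0.75 to 1×10^6 cells/ml (37 °C, 5% CO2).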

S. aureus biofilm = system: S. aureus biofilm
Method: (§1) Methods of assessment of anti-biofilm activity—Biofilm formation was initially analyzed using a static abiotic solid surface assay as described elsewhere (de la Fuente-Nunez et al., 2012). […] Planktonic cells were removed, biofilm cells adhering to the side of the tubes were stained with crystal violet, and absorbance at 595 nm was measured using a microtiter plate reader (Bio-Tek Instruments Inc., United States). Some peptides were screened against two Gram negative organisms, P. aeruginosa and K. pneumoniae using a Bioflux apparatus (AutoMate Scientific, Berkeley, Calif.; http://www.autom8.com/bioflux_biofilm.html), which allows for the high-throughput, real-time analysis of biofilms.

P. aeruginosa biofilm = system: P. aeruginosa biofilm
Method: as §1

[5] = concentration that reduced biofilm growth by 50%

CC[C@H](C)[C@H](NC(=O)[C@H](CCCNC(=N)N)NC(=O)[C@H](C)NC(=O)[C@H](CC(C)C)NC(=O)[C@@H](N)CCCNC(=N)N)C(=O)N[C@H](C(=O)N[C@H](C(=O)N[C@H](C(=O)N[C@@H](CCCNC(=N)N)C(=O)N[C@H](C(=O)N[C@@H](CCCNC(=N)N)C(=O)N[C@@H](CCCNC(=N)N)C(N)=O)C(C)C)[C@@H](C)CC)C(C)C)C(C)C [Peptide E3] (H-RLARIVVIRVRR-NH2; N-terminus assumed)
% Biofilm Inhibition Pa ([1]; Pa) biofilm, 10 μg/ml): 47%

VRFRIWRR (VRFRIWRR-NH2) [EH2]
Notes (IDR immunomodulatory activity) [2]: Weaker activity than 1018

VRRIWRR (VRRIWRR-NH2) [EH1]
Notes (IDR immunomodulatory activity) [2]: Weaker activity than 1018

VRLIRVWRVIRK (VRLIRVWRVIRK-NH2) [HE7]
Notes (IDR immunomodulatory activity) [2]: No secretion of MCP-1

RVLIRVARRVIW (RVLIRVARRVIW-NH2) [HE9]
Notes (IDR immunomodulatory activity) [2]: Weaker activity than 1018

CC[C@H](C)[C@H](NC(=O)[C@H](Cc1c[nH]c2ccccc12)NC(=O)[C@H](CCCNC(=N)N)NC(=O)[C@@H](N)CCCNC(=N)N)C(=O)N[C@@H](CCCNC(=N)N)C(=O)N[C@H](C(=O)N[C@@H](C)C(=O)N[C@H](C(=O)N[C@H](C(=O)N[C@@H](CC(C)C)C(=O)N[C@@H](CCCNC(=N)N)C(=O)N[C@H](C(N)=O)C(C)C)[C@@H](C)CC)C(C)C)C(C)C [HE1]
MCP-1 induction ([2]; 24 hours of stimulation, lowest peptide concentration 20 μg/ml): clearly superior to peptide 1018

CC[C@H](C)[C@H](NC(=O)[C@H](CCCNC(=N)N)NC(=O)[C@H](C)NC(=O)[C@@H](NC(=O)[C@H](CCCNC(=N)N)NC(=O)[C@H](C)NC(=O)[C@H](Cc1c[nH]c2ccccc12)NC(=O)[C@H](CCCNC(=N)N)NC(=O)[C@@H](N)C(C)C)C(C)C)C(=O)N[C@@H](CC(C)C)C(=O)N[C@@H](CCCNC(=N)N)C(=O)N[C@H](C(N)=O)C(C)C [HE3] (H-VRWARVARILRV-NH2; N-terminus assumed)
Notes (IDR immunomodulatory activity) [2]: Weaker activity than 1018

CC[C@H](C)[C@H](NC(=O)[C@H](C)N)C(=O)N[C@@H](CCCNC(=N)N)C(=O)N[C@H](C(=O)N[C@H](C(=O)N[C@@H](CCCNC(=N)N)C(=O)N[C@@H](C)C(=O)N[C@@H](CCCNC(=N)N)C(=O)N[C@@H](CC(C)C)C(=O)N[C@H](C(=O)N[C@@H](CCCNC(=N)N)C(=O)N[C@@H](CCCNC(=N)N)C(N)=O)C(C)C)C(C)C)C(C)C [Peptide 1009] (H-AIRVVRARLVRR-NH2; N-terminus assumed)
% Biofilm Inhibition Pa ([1]; Pa) biofilm, 10 μg/ml): 54%

CC[C@H](C)[C@H](NC(=O)[C@H](CC(C)C)NC(=O)[C@@H]1CCCN1C(=O)[C@H](CCCCN)NC(=O)[C@H](C)NC(=O)[C@@H](NC(=O)[C@@H](NC(=O)[C@@H](NC(=O)[C@@H](NC(=O)[C@H](CCCCN)NC(=O)[C@H](CCCCN)NC(=O)[C@H](C)NC(=O)[C@H](C)NC(=O)[C@H](CO)NC(=O)[C@@H](NC(=O)[C@H](CC(C)C)NC(=O)[C@H](CCCCN)NC(=O)[C@H](CCCCN)NC(=O)[C@@H](NC(=O)[C@H](Cc1ccccc1)NC(=O)[C@H](CO)NC(=O)[C@H](CCCCN)NC(=O)[C@H](Cc1c[nH]c2ccccc12)NC(=O)[C@@H](N)CCCCN)[C@@H](C)CC)[C@@H](C)O)C(C)C)C(C)C)[C@@H](C)O)[C@@H](C)O)C(=O)N[C@@H](CO)C(=O)N[C@@H](CO)C(N)=O [CP26] (H-KWKSFIKKLTSAAKKVVTTAKPLISS-NH2; N-terminus assumed)
% Biofilm Inhibition Pa ([1]; peptide 10 μg/ml): 62%

CC[C@H](C)[C@H](NC(=O)[C@H](CCCNC(=N)N)NC(=O)[C@@H](NC(=O)[C@H](CCCCN)NC(=O)[C@@H](NC(=O)[C@@H](NC(=O)[C@H](Cc1c[nH]c2ccccc12)NC(=O)[C@H](CCCNC(=N)N)NC(=O)[C@@H](N)CCCNC(=N)N)[C@@H](C)CC)C(C)C)C(C)C)C(=O)N[C@@H](CCCNC(=N)N)C(=O)N[C@@H](CCCNC(=N)N)C(=O)N[C@@H](CCCNC(=N)N)C(N)=O [Peptide 2008] (H-RRWIVKVRIRRR-NH2; N-terminus assumed)
Fold change in IL1β relative to no peptide LPS stimulated cells [3]: 0.25 | IL1β Production [3]: 250 pg/mL | Fold increase in MCP1 cf. untreated cells [4]: 2146 | MCP1 [4]: 45524 pg/mL | MBIC50 S. aureus (S. aureus biofilm; biofilm): 10 µg/mL | MBIC50 P. aeruginosa (P. aeruginosa biofilm; biofilm): 10 µg/mL

CC[C@H](C)[C@H](NC(=O)[C@H](CCCNC(=N)N)NC(=O)[C@@H](NC(=O)[C@H](CCCNC(=N)N)NC(=O)[C@@H](NC(=O)[C@@H](NC(=O)[C@H](CC(C)C)NC(=O)[C@H](CCCNC(=N)N)NC(=O)[C@@H](N)C(C)C)[C@@H](C)CC)C(C)C)C(C)C)C(=O)N[C@@H](Cc1c[nH]c2ccccc12)C(=O)N[C@@H](CCCNC(=N)N)C(=O)N[C@@H](CCCNC(=N)N)C(N)=O [Peptide 2005] (H-VRLIVRVRIWRR-NH2; N-terminus assumed)
Fold change in IL1β relative to no peptide LPS stimulated cells [3]: 0.10 | IL1β Production [3]: 101 pg/mL | Fold increase in MCP1 cf. untreated cells [4]: 837 | MCP1 [4]: 17826 pg/mL | MBIC50 S. aureus (S. aureus biofilm; [5]): 10 µg/mL | MBIC50 P. aeruginosa (P. aeruginosa biofilm; [5]): 2.5 µg/mL

N=C(N)NCCC[C@H](NC(=O)[C@H](CCCNC(=N)N)NC(=O)[C@H](Cc1c[nH]c2ccccc12)NC(=O)[C@H](Cc1c[nH]c2ccccc12)NC(=O)[C@H](CCCCN)NC(=O)[C@H](Cc1c[nH]c2ccccc12)NC(=O)[C@H](Cc1c[nH]c2ccccc12)NC(=O)[C@H](CCCNC(=N)N)NC(=O)[C@@H](N)CCCCN)C(N)=O [HHC36, reference compound] (H-KRWWKWWRR-NH2; N-terminus assumed)
activity vs. biofilms ([1]; statement referring to Table 2): completely inactive

Reference: patent US20190315823A1, “SMALL CATIONIC ANTI-BIOFILM AND IDR PEPTIDES” (priority 2013, published 2019)
